Patent publication US5917056A (priority 1995, dated 1999)

How the values were obtained:
L1210 (murine leukemia) = test: Cytotoxicity on tumour cell lines, L1210 (murine leukemia); assay type: cell-based; settings: Mus musculus, exposure time 72 h
Experimental: (§1) Standard conditions: basal medium=RPMI 1640+20 mM HEPES+2 mM L-glutamine.

tumours [1] = test: cytotoxic and antitumour activity (statement in words)
HT-29 (Human colon) = test: Cytotoxicity on tumour cell lines, HT-29 (Human colon); assay type: cell-based; settings: exposure time 72 h
Experimental: as §1

A121 (Human ovarian) = test: Cytotoxicity on tumour cell lines, A121 (Human ovarian); assay type: cell-based; settings: exposure time 72 h
Experimental: as §1

A549 (Human NSCLC) = test: Cytotoxicity on tumour cell lines, A549 (Human NSCLC); assay type: cell-based; settings: exposure time 72 h
Experimental: as §1

MCF7 (Human breast) = test: Cytotoxicity on tumour cell lines, MCF7 (Human breast); assay type: cell-based; settings: exposure time 72 h
Experimental: as §1

[2] = adverse effects / tolerability (statement in words); settings: compared with paclitaxel / prior art
tumours [3] = settings: background art, cited from earlier work
[4] = clinical use, background art; cited from earlier work
MCF7-ADR (resistant) = test: cells; assay type: cell-based; settings: Homo sapiens, NCI/ADR-RES, 72 h

Q: Which IC50 (L1210 (murine leukemia)) does the source give for `CCCCCC(=O)N[C@@H](C=C(C)C)[C@@H](O)C(=O)O[C@@H]1C(C)=C2[C@@H](OC(C)=O)C(=O)[C@@]3(C)[C@H]([C@H](OC(=O)c4ccccc4)[C@@]4(OS(=O)O[C@@H]14)C2(C)C)[C@]1(OC(C)=O)CO[C@@H]1C[C@@H]3O` (stereo partly drawn) [Compound 9, 13-[(2R,3S)-3-caproylamino-2-hydroxy-3-isobutenyl-propanoyl]-14β-hydroxybaccatine-III 1,14-sulfite] here?
A: Its IC50 is 1.8 ± 0.1 nM.

Q: What about the “activity (in words)” value (tumours [1]) of the same compound?
A: The value was “advantages compared with the compounds of the prior art in terms of both activity and tolerability”.

Q: What about the IC50 (HT-29 (Human colon)) of the same compound?
A: Its IC50 is 0.5 ± 0.1 nM.

Q: And the IC50 (A121 (Human ovarian))?
A: The IC50 was 1.1 ± 0.1 nM.

Q: What about the IC50 (A549 (Human NSCLC)) of the same compound?
A: The IC50 was 1.8 ± 0.2 nM.

Q: What about the IC50 (MCF7 (Human breast)) of the same compound?
A: Its IC50 is 1 ± 0.3 nM.

Q: And the drawbacks / tolerability [2]?
A: Its drawbacks / tolerability is “advantages compared with the compounds of the prior art in terms of both activity and tolerability”.

Q: For `CCCCCC(=O)N[C@@H](C=C(C)C)[C@@H](O)C(=O)O[C@@H]1C(C)=C2[C@@H](OC(C)=O)C(=O)[C@@]3(C)[C@H]([C@H](OC(=O)c4ccccc4)[C@@]4(OC(=S)O[C@@H]14)C2(C)C)[C@]1(OC(C)=O)CO[C@@H]1C[C@@H]3O` [Compound 7, 13-[(2R,3S)-3-caproylamino-2-hydroxy-3-isobutenyl-propanoyl]-14β-hydroxybaccatine III 1,14-thiocarbonate III], which “activity (in words)” value (tumours [1]) is on record?
A: The value was “particularly active”.

Q: For `CC(=O)O[C@H]1C(=O)[C@@]2(C)[C@H]([C@H](OC(=O)c3ccccc3)[C@]34OC(=S)O[C@H]3[C@H](OC(=O)[C@H](O)[C@H](CC(C)C)NC(=O)OC(C)(C)C)C(C)=C1C4(C)C)[C@]1(OC(C)=O)CO[C@@H]1C[C@@H]2O` [Compound 5, 13-[(2R,3S)-3-tert-butoxycarbonyl-amino-2-hydroxy-3-isobutyl-propanoyl]-14β-hydroxybaccatine III 1,14-thiocarbonate], which IC50 (L1210 (murine leukemia)) is on record?
A: Its IC50 is 0.5 ± 0.1 nM.

Q: What about the “activity (in words)” value (tumours [1]) of the same compound?
A: The value was “particularly active”.

Q: What about the IC50 (HT-29 (Human colon)) of the same compound?
A: The IC50 was 0.3 ± 0.1 nM.

Q: And the IC50 (A121 (Human ovarian))?
A: Its IC50 is 0.8 ± 0.3 nM.

Q: And the IC50 (A549 (Human NSCLC))?
A: The IC50 was 2.3 ± 0.3 nM.

Q: What about the IC50 (MCF7 (Human breast)) of the same compound?
A: The IC50 was 1.2 ± 0.2 nM.

Q: With `CC(=O)O[C@H]1C(=O)[C@@]2(C)[C@H]([C@H](OC(=O)c3ccccc3)[C@]3(O)C[C@H](OC(=O)[C@H](O)[C@@H](NC(=O)c4ccccc4)c4ccccc4)C(C)=C1C3(C)C)[C@]1(OC(C)=O)CO[C@@H]1C[C@@H]2O` [Paclitaxel, paclitaxel, reference compound] as the compound, how does the IC50 (L1210 (murine leukemia)) read?
A: Its IC50 is 7.5 ± 2 nM.

Q: And the IC50 (HT-29 (Human colon))?
A: The IC50 was 6.9 ± 0.4 nM.

Q: What about the IC50 (A121 (Human ovarian)) of the same compound?
A: Its IC50 is 4.7 ± 0.3 nM.

Q: And the induction of resistance (tumours [3])?
A: Its induction of resistance is “induces resistance quickly”.

Q: And the anticancerogenic activity (tumours [3]; different forms of human tumours)?
A: The anticancerogenic activity was “anticancerogenic activity on different forms of human tumours”.

Q: And the IC50 (A549 (Human NSCLC))?
A: Its IC50 is 5.7 ± 0.5 nM.

Q: And the clinical drawbacks [4]?
A: Its clinical drawbacks is “cardiotoxicity”.

Q: And the IC50 (MCF7 (Human breast))?
A: Its IC50 is 4.8 ± 0.1 nM.

Q: What about the IC50 (MCF7-ADR (resistant)) of the same compound?
A: The IC50 was 395 ± 8.7 nM.

Q: Which IC50 (L1210 (murine leukemia)) does the source give for `CCCCCC(=O)N[C@@H](C=C(C)C)[C@@H](O)C(=O)O[C@@H]1C(C)=C2[C@@H](OC(C)=O)C(=O)[C@@]3(C)[C@H]([C@H](OC(=O)c4ccccc4)[C@@]4(OC(=N)O[C@@H]14)C2(C)C)[C@]1(OC(C)=O)CO[C@@H]1C[C@@H]3O` [Compound 8, 13-[(2R,3S)-3-caproylamino-2-hydroxy-3-isobutenyl-propanoyl]-14β-hydroxybaccatine III 1,14-iminocarbonate] here?
A: Its IC50 is 2.4 ± 0.1 nM.

Q: What about the “activity (in words)” value (tumours [1]) of the same compound?
A: The value was “advantages compared with the compounds of the prior art in terms of both activity and tolerability”.

Q: What about the IC50 (HT-29 (Human colon)) of the same compound?
A: Its IC50 is 0.5 ± 0.1 nM.

Q: What about the IC50 (A121 (Human ovarian)) of the same compound?
A: The IC50 was 1.9 ± 0.2 nM.

Q: What about the IC50 (A549 (Human NSCLC)) of the same compound?
A: The IC50 was 2.1 ± 0.3 nM.

Q: What about the IC50 (MCF7 (Human breast)) of the same compound?
A: The IC50 was 0.8 ± 0.2 nM.

Q: What about the drawbacks / tolerability [2] of the same compound?
A: Its drawbacks / tolerability is “advantages compared with the compounds of the prior art in terms of both activity and tolerability”.

Q: For `CC(=O)O[C@H]1C(=O)[C@@]2(C)[C@H]([C@H](OC(=O)c3ccccc3)[C@]34OC(=S)O[C@H]3[C@H](OC(=O)[C@H](O)[C@H](C=C(C)C)NC(=O)OC(C)(C)C)C(C)=C1C4(C)C)[C@]1(OC(C)=O)CO[C@@H]1C[C@@H]2O` [Compound 6, 13-[(2R,3S)-3-tert-butoxycarbonylamino-2-hydroxy-3-isobutenyl-propanoyl]-14β-hydroxybaccatine III 1,14-thiocarbonate], which “activity (in words)” value (tumours [1]) is on record?
A: Its value is “particularly active”.
